Converted amounts (≈) assume the structure as drawn.
Assay: Solubility of TMB in different solvents
Assay type: physicochemical
Excerpt: The following Table 1 presents results regarding the solubility of TMB in different solvents.

Compound `Cc1cc(-c2cc(C)c(N)c(C)c2)cc(C)c1N` [TMB, 3,3′,5,5′-tetramethylbenzidine] has a solubility (organic solvent or mixture, solvent Dimethylsulfonamide) of 1.6 mM (≈ 385 µg/mL), a solubility (organic solvent or mixture, solvent Ethyl acetate) of 10 mM (≈ 2400 µg/mL) and a solubility (organic solvent or mixture, solvent Methanol) of 5.2 mM (≈ 1250 µg/mL). The solubility (water, solvent Water) was 0.1 mM (≈ 24 µg/mL).
